In patent publication US20100227840A1, “USE OF 25-HYDROXY VITAMIN D3 TO IMPROVE MALE ANIMAL FERTILITY” (priority 2005, published 2010):

Legend:
pigs = assay: conception rate of pigs fertilized by boars administered 25-hydroxy vitamin D3; assay type: in vivo, pig; details: pigs fertilized by boars that were administered 25-hydroxy vitamin D3
boars = assay: administration of 25-hydroxy vitamin D3 to boars: quality of semen; assay type: in vivo, pig; details: administered to boars

`C=C1CC[C@H](O)C/C1=C/C=C1\CCC[C@]2(C)[C@@H]([C@H](C)CCCC(C)(C)O)CC[C@@H]12` [25-hydroxy vitamin D3] was tested, and the “conception rate in pigs” value (pigs) was “increases the conception rate in pigs” and the “quality of boar semen” value (boars) was “improves the quality of boar semen”.
